The values that follow come from patent publication US11833229B2, “Labeling precursors with squaric acid coupling” (SCV—SpezialChemikalienVertrieb GmbH, priority 2019, dated 2023).

The subject of series [1] is tumor. Briefly: Ex vivo activities of 68Ga-DATA.QS.PSMA and 68Ga-PSMA-11. The class given is in vivo. As to conditions: ± SD. The source says: The results of ex vivo investigations (FIGS. 41-43) are in agreement with the in vivo observations.
The test system of series [2] is tumor. As to the kind of experiment: In vivo PET comparison of DATA.QS.PSMA with PSMA-11 (MIP, time/activity curves). The source says: Furthermore, compounds of the type DATA.QS.PSMA were compared in vivo with PSMA-11 in the same animal model.

Regarding `CN(CC(=O)O)C1(CCCCC(=O)NCCNc2c(NCCCCC(NC(=O)NC(CCC(=O)O)C(=O)O)C(=O)O)c(=O)c2=O)CN(CC(=O)O)CCN(CC(=O)O)C1.[68Ga+3]` (stereo not drawn) [^68Ga.DATA.QS.PSMA], in series [1] (LN), the “Ex vivo activity LN” value is 0.35 ± 0.20 % ID/g. The “Ex vivo activity blood” value in series [1] (blood) is 0.50 ± 0.19 % ID/g. Besides, the “Ex vivo activity bone” value in series [1] (bone) came out at 0.15 ± 0.03 % ID/g. Also, the “Ex vivo activity heart” value in series [1] (heart) was 0.17 ± 0.06 % ID/g. Further, in series [1] (kidney left), the “Ex vivo activity kidney left” value stood at 6.59 ± 2.45 % ID/g. For the same molecule, the “Ex vivo activity kidney right” value in series [1] (kidney right) worked out at 6.23 ± 2.39 % ID/g. Moreover, the “Ex vivo activity liver” value in series [1] (liver) is listed as 0.21 ± 0.04 % ID/g. Moreover, the “Ex vivo activity lung” value in series [1] (lung) came to 0.59 ± 0.27 % ID/g. The “Ex vivo activity muscle” value in series [1] (muscle) amounted to 0.09 ± 0.05 % ID/g. In series [1] (salivary glands), the “Ex vivo activity salivary glands” value is recorded as 0.19 ± 0.07 % ID/g. In addition, in series [1] (small intestine), the “Ex vivo activity small intestine” value came to 0.31 ± 0.12 % ID/g. Moreover, the “Ex vivo activity spleen” value in series [1] (spleen) was found to be 0.54 ± 0.22 % ID/g. The “Ex vivo activity tumor” value in series [1] (tumor) was found to be 4.65 ± 0.58 % ID/g. Moreover, the “accumulation in the tumor” value in series [2] (MIP images) was “high accumulation”. Also, in series [2] (first hour, compared with [68Ga]-PSMA-11, time/activity curves), the “excretion via the kidneys” value is “significantly faster”.
